Structures are written as SMILES. A value given as a limit tells only on which side of the number the result lay.

Sequence of GST-tagged-Wee1 kinase (P30291 whole entry): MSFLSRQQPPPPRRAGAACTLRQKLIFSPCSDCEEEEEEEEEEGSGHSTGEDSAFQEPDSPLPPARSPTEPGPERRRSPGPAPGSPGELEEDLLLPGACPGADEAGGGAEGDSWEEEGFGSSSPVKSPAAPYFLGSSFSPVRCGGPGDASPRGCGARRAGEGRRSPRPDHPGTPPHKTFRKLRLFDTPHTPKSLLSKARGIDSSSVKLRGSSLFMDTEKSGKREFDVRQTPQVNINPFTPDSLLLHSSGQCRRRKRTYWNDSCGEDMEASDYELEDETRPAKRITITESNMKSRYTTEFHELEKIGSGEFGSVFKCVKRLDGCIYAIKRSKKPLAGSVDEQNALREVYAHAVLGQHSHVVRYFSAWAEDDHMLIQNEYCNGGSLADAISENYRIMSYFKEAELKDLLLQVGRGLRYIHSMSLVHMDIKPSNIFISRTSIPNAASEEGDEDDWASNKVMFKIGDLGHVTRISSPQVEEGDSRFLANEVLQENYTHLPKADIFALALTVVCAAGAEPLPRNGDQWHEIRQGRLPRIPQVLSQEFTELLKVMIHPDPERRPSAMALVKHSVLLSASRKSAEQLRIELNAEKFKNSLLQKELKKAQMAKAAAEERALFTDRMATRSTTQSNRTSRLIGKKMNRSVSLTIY

This assay has as its target GST-tagged-Wee1 kinase (Homo sapiens, UniProt P30291). Nature of the assay: Wee1 time-resolved fluorescence equilibrium binding assay (displacement of Oregon Green-labeled ATP-competitive kinase probe). How it is done: Wee1 kinase was assayed using a time-resolved fluorescence equilibrium binding assay monitoring displacement of a rapidly reversible Oregon Green-labeled ATP-competitive kinase probe (N-(2-(2-(2-(4-(4-(5-chloro-4-(2-(1-hydroxycyclobutyl)thiazol-5-yl)-1H-pyrrolo[2,3-b]pyridin-2-yl)phenyl)piperazin-1-yl)ethoxy)ethoxy)ethyl)-2′,7′-difluoro-3′,6′-dihydroxy-3-oxo-3H-spiro[isobenzofuran-1,9′-xanthene]-5-carboxamide) by competitive Wee1 inhibitors.
On to `CN1Cc2cc(Nc3ncc4c(=O)n(-c5ccccc5Cl)nc(-c5ccccc5)c4n3)ccc2C2(CC2)C1` [Example 53, 6-(2-chlorophenyl)-2-[(2′-methyl-2′,3′-dihydro-1′H-spiro[cyclopropane-1,4′-isoquinolin]-7′-yl)amino]-8-phenylpyrimido[4,5-d]pyridazin-5(6H)-one], for which the Ki was 0.1 nM.

Turning to `CN1CCN(c2ccc(Nc3ncc4c(=O)n(-c5ccccc5Cl)nc(C5CCCC5)c4n3)cc2)CC1` [Example 55, 6-(2-chlorophenyl)-8-cyclopentyl-2-{[4-(4-methylpiperazin-1-yl)phenyl]amino}pyrimido[4,5-d]pyridazin-5(6H)-one], the affinity corresponds to a Ki of 2 nM.

In the case of `CN1CCN(c2ccc(Nc3ncc4c(=O)n(-c5cccc(Cl)c5)nc(C5CCCC5)c4n3)cc2)CC1` [Example 56, 6-(3-chlorophenyl)-8-cyclopentyl-2-{[4-(4-methylpiperazin-1-yl)phenyl]amino}pyrimido[4,5-d]pyridazin-5(6H)-one], the Ki worked out at 63 nM. This Ki lies about 32-fold higher than the previous one.

Molecule `COc1ccccc1-n1nc(C2CCCC2)c2nc(Nc3ccc(N4CCN(C)CC4)cc3)ncc2c1=O` [Example 57, 8-cyclopentyl-6-(2-methoxyphenyl)-2-{[4-(4-methylpiperazin-1-yl)phenyl]amino}pyrimido[4,5-d]pyridazin-5(6H)-one] showed a Ki of 7 nM. Compared with the last molecule, the Ki is about 9-fold lower.

For the molecule `COc1cccc(-c2nn(-c3ccccc3)c(=O)c3cnc(Nc4ccc(N5CCN(C)CC5)cc4)nc23)c1` [Example 58, 8-(3-methoxyphenyl)-2-{[4-(4-methylpiperazin-1-yl)phenyl]amino}-6-phenylpyrimido[4,5-d]pyridazin-5(6H)-one], the Ki came to 2 nM.

`CN1CCN(c2ccc(Nc3ncc4c(=O)n(-c5ccccc5)nc(-c5ccc(-c6ncccn6)cc5)c4n3)cc2)CC1` [Example 59, 2-{[4-(4-methylpiperazin-1-yl)phenyl]amino}-6-phenyl-8-[4-(pyrimidin-2-yl)phenyl]pyrimido[4,5-d]pyridazin-5(6H)-one] displayed a Ki of 3 nM.

On to `CN1CCN(c2ccc(Nc3ncc4c(=O)n(-c5ccccc5Cl)nc(-c5ccccn5)c4n3)cc2)CC1` [Example 60, 6-(2-chlorophenyl)-2-{[4-(4-methylpiperazin-1-yl)phenyl]amino}-8-(pyridin-2-yl)pyrimido[4,5-d]pyridazin-5(6H)-one], for which the Ki was 1 nM.

Molecule `CN1CCN(c2ccc(Nc3ncc4c(=O)n(-c5ccccc5Cl)nc(-c5ccc(-c6ncccn6)cc5)c4n3)cc2)CC1` [Example 61, 6-(2-chlorophenyl)-2-{[4-(4-methylpiperazin-1-yl)phenyl]amino}-8-[4-(pyrimidin-2-yl)phenyl]pyrimido[4,5-d]pyridazin-5(6H)-one] showed an inhibitory constant (Ki) of less than 1 nM.

`C=CCn1nc(-c2ccc(-c3ncccn3)cc2)c2nc(Nc3ccc(N4CCN(C)CC4)cc3)ncc2c1=O` [Example 62, 6-allyl-2-{[4-(4-methylpiperazin-1-yl)phenyl]amino}-8-[4-(pyrimidin-2-yl)phenyl]pyrimido[4,5-d]pyridazin-5(6H)-one] gave a Ki of 11 nM.

The molecule `C=CCn1nc(-c2cccc(OC)c2)c2nc(Nc3ccc(N4CCN(C)CC4)cc3)ncc2c1=O` [Example 63, 6-allyl-8-(3-methoxyphenyl)-2-{[4-(4-methylpiperazin-1-yl)phenyl]amino}pyrimido[4,5-d]pyridazin-5(6H)-one] had a Ki of 5 nM.

As for `Cc1ccccc1-n1nc(-c2ccc(-c3ncccn3)cc2)c2nc(Nc3ccc(N4CCN(C)CC4)cc3)ncc2c1=O` [Example 64, 6-(2-methylphenyl)-2-{[4-(4-methylpiperazin-1-yl)phenyl]amino}-8-[4-(pyrimidin-2-yl)phenyl]pyrimido[4,5-d]pyridazin-5(6H)-one], the Ki turned out to be 0.3 nM. This Ki is about 17-fold lower than that of the molecule before.

The molecule `CN1CCN(c2ccc(Nc3ncc4c(=O)n(-c5ccccc5Cl)nc(-c5cccc(Br)c5)c4n3)cc2)CC1` [Example 65, 8-(3-bromophenyl)-6-(2-chlorophenyl)-2-{[4-(4-methylpiperazin-1-yl)phenyl]amino}pyrimido[4,5-d]pyridazin-5(6H)-one] had a Ki of 1 nM.

Consider `Cc1ccccc1-n1nc(-c2cccc(Br)c2)c2nc(Nc3ccc(N4CCN(C)CC4)cc3)ncc2c1=O` [Example 66, 8-(3-bromophenyl)-6-(2-methylphenyl)-2-{[4-(4-methylpiperazin-1-yl)phenyl]amino}pyrimido[4,5-d]pyridazin-5(6H)-one], for which the affinity, expressed as Ki, was 4 nM.

Molecule `CN1CCN(c2ccc(Nc3ncc4c(=O)n(-c5ccccc5)nc(-c5cccc(Br)c5)c4n3)cc2)CC1` [Example 67, 8-(3-bromophenyl)-2-{[4-(4-methylpiperazin-1-yl)phenyl]amino}-6-phenylpyrimido[4,5-d]pyridazin-5(6H)-one] displayed a Ki of 14 nM.

Molecule `C=CCn1nc(-c2cccc(Br)c2)c2nc(Nc3ccc(N4CCN(C)CC4)cc3)ncc2c1=O` [Example 68, 6-allyl-8-(3-bromophenyl)-2-{[4-(4-methylpiperazin-1-yl)phenyl]amino}pyrimido[4,5-d]pyridazin-5(6H)-one] gave a Ki of 14 nM.

`CN1CCN(c2ccc(Nc3ncc4c(=O)n(-c5c(Cl)cccc5Cl)nc(-c5ccco5)c4n3)cc2)CC1` [Example 69, 6-(2,6-dichlorophenyl)-8-(2-furyl)-2-{[4-(4-methylpiperazin-1-yl)phenyl]amino}pyrimido[4,5-d]pyridazin-5(6H)-one]: the affinity corresponds to a Ki of 0.06 nM. Against the preceding molecule, the Ki is about 230-fold lower.

With `CN1CCN(c2ccc(Nc3ncc4c(=O)n(-c5c(Cl)cccc5Cl)nc(-c5cccs5)c4n3)cc2)CC1` [Example 70, 6-(2,6-dichlorophenyl)-2-{[4-(4-methylpiperazin-1-yl)phenyl]amino}-8-(2-thienyl)pyrimido[4,5-d]pyridazin-5(6H)-one], the Ki stood at 0.1 nM.

For the molecule `Cc1ccccc1-c1nn(-c2c(Cl)cccc2Cl)c(=O)c2cnc(Nc3ccc(N4CCN(C)CC4)cc3)nc12` [Example 71, 6-(2,6-dichlorophenyl)-8-(2-methylphenyl)-2-{[4-(4-methylpiperazin-1-yl)phenyl]amino}pyrimido[4,5-d]pyridazin-5(6H)-one], affinity was put at a Ki of 0.2 nM.

`CN1CCN(c2ccc(Nc3ncc4c(=O)n(-c5c(Cl)cccc5Cl)nc(-c5cccc(Br)c5)c4n3)cc2)CC1` [Example 72, 8-(3-bromophenyl)-6-(2,6-dichlorophenyl)-2-{[4-(4-methylpiperazin-1-yl)phenyl]amino}pyrimido[4,5-d]pyridazin-5(6H)-one]: affinity was put at a Ki of 0.5 nM.

With `CN1CCN(c2ccc(Nc3ncc4c(=O)n(-c5ccccc5)nc(-c5cccc(Cl)n5)c4n3)cc2)CC1` [Example 73, 8-(6-chloropyridin-2-yl)-2-{[4-(4-methylpiperazin-1-yl)phenyl]amino}-6-phenylpyrimido[4,5-d]pyridazin-5(6H)-one], the affinity corresponds to a Ki of 3 nM.

`CN1CCN(c2ccc(Nc3ncc4c(=O)n(-c5c(Cl)cccc5Cl)nc(C5CCCC5)c4n3)cc2)CC1` [Example 74, 8-cyclopentyl-6-(2,6-dichlorophenyl)-2-{[4-(4-methylpiperazin-1-yl)phenyl]amino}pyrimido[4,5-d]pyridazin-5(6H)-one] showed a Ki of 1 nM.

`CN1CCN(c2ccc(Nc3ncc4c(=O)n(-c5c(Cl)cccc5Cl)nc(-c5cccc(NNc6c(Cl)cccc6Cl)n5)c4n3)cc2)CC1` [Example 76, 6-(2,6-dichlorophenyl)-8-{6-[2-(2,6-dichlorophenyl)hydrazino]pyridin-2-yl}-2-{[4-(4-methylpiperazin-1-yl)phenyl]amino}pyrimido[4,5-d]pyridazin-5(6H)-one] displayed a Ki of 4 nM.

For the molecule `CN1CCN(c2ccc(Nc3ncc4c(=O)n(-c5ccccc5)nc(-c5cccnc5Cl)c4n3)cc2)CC1` [Example 78, 8-(2-chloropyridin-3-yl)-2-{[4-(4-methylpiperazin-1-yl)phenyl]amino}-6-phenylpyrimido[4,5-d]pyridazin-5(6H)-one], the inhibitory constant (Ki) worked out at 48 nM. This Ki lies about 12-fold higher than the previous one.

`CCOc1ncccc1-c1nn(-c2ccccc2)c(=O)c2cnc(Nc3ccc(N4CCN(C)CC4)cc3)nc12` [Example 79, 8-(2-ethoxypyridin-3-yl)-2-{[4-(4-methylpiperazin-1-yl)phenyl]amino}-6-phenylpyrimido[4,5-d]pyridazin-5(6H)-one] displayed a Ki of 710 nM.

`CN1CCN(c2ccc(Nc3ncc4c(=O)n(-c5ccccc5Cl)nc(-c5cccnc5Cl)c4n3)cc2)CC1` [Example 80, 6-(2-chlorophenyl)-8-(2-chloropyridin-3-yl)-2-{[4-(4-methylpiperazin-1-yl)phenyl]amino}pyrimido[4,5-d]pyridazin-5(6H)-one]: the affinity, expressed as Ki, was 27 nM.

`CN1CCN(c2ccc(Nc3ncc4c(=O)n(-c5c(Cl)cccc5Cl)nc(-c5cccnc5Cl)c4n3)cc2)CC1` [Example 81, 8-(2-chloropyridin-3-yl)-6-(2,6-dichlorophenyl)-2-{[4-(4-methylpiperazin-1-yl)phenyl]amino}pyrimido[4,5-d]pyridazin-5(6H)-one]: the affinity corresponds to a Ki of 4 nM. Compared with the last molecule, the Ki is about 6.8-fold lower.

For `CN1CCN(c2ccc(Nc3ncc4c(=O)n(-c5ccccc5)nc(-c5cccc(F)c5)c4n3)cc2)CC1` [Example 82, 8-(3-fluorophenyl)-2-{[4-(4-methylpiperazin-1-yl)phenyl]amino}-6-phenylpyrimido[4,5-d]pyridazin-5(6H)-one], affinity was put at a Ki of 9 nM.

`CN1CCN(c2ccc(Nc3ncc4c(=O)n(-c5ccccc5Cl)nc(-c5cccc(F)c5)c4n3)cc2)CC1` [Example 83, 6-(2-chlorophenyl)-8-(3-fluorophenyl)-2-{[4-(4-methylpiperazin-1-yl)phenyl]amino}pyrimido[4,5-d]pyridazin-5(6H)-one] showed a Ki of 0.2 nM.

`CN1CCN(c2ccc(Nc3ncc4c(=O)n(-c5c(Cl)cccc5Cl)nc(-c5cccc(F)c5)c4n3)cc2)CC1` [Example 84, 6-(2,6-dichlorophenyl)-8-(3-fluorophenyl)-2-{[4-(4-methylpiperazin-1-yl)phenyl]amino}pyrimido[4,5-d]pyridazin-5(6H)-one] registered an inhibitory constant (Ki) of 0.1 nM. This Ki is about 2-fold lower than that of the molecule before.

Broadly, the Ki is a measure of affinity in units of concentration, obtained from inhibition or displacement. Lower therefore signals tighter binding.

The record behind these values is patent US8796289B2 (AbbVie Inc., priority 2011, dated 2014).
